The values that follow are results of earlier work, collected in US11214591B2, “Enzyme compositions, steroid derivatives, enzyme inhibitors, and methods of making same for pharmaceutical applications” (BOARD OF REGENTS, THE UNIVERSITY OF TEXAS SYSTEM, priority 2018, dated 2022).

The conditions of data set [1]: male rats.
For data set [2] the following is noted: in vivo.
For data set [3] the following is noted: in vivo. This is another data set of the same source.
For data set [4] the following is noted: mice feeding study; bile acid composition of micelles.

On to `C[C@]12CC[C@H](O)CC1=CC(=O)[C@@H]1[C@@H]2CC[C@]2(C)C(=O)CC[C@@H]12` [7-Keto DHEA, 7-keto dehydroepiandrosterone], for which the “voluntary intake of ethanol” value in data set [1] is on record as “decreased voluntary intake of ethanol”.

As for `CC(=O)O[C@H]1CC[C@@]2(C)C(=CC(=O)[C@@H]3[C@@H]2CC[C@]2(C)C(=O)CC[C@@H]32)C1` [7-keto DHEA-3OAc, 7-keto dehydroepiandrosterone-3-acetate], the PTSD symptoms result in data set [2] is given as “reduce post-traumatic stress disorder (PTSD) symptoms”. In data set [3], the “resting metabolic rate associated with dieting” value was “reverse the resting metabolic rate associated with dieting”.

With `C[C@H](CCC(=O)O)[C@H]1CC[C@H]2[C@@H]3[C@H](O)C[C@@H]4C[C@H](O)CC[C@]4(C)[C@H]3CC[C@]12C` [chenodeoxycholic acid], the cholesterol absorption in data set [4] was 60%.
